# According to the kinase profiling compilation of Christmann-Franck et al. (2016):
# “And” between values parts separate entries of the source, which are not always exact repeats. Identical values can stand only once.
# How the values were obtained:
# Assay in all cases: Caliper, Mobility shift assay off-chip
# AKT2 (human) = AKT2 (human) (UniProt P31751)
# CAMK2A (human) = CAMK2A (human) (UniProt Q9UQM7)
# CIT (human) = CIT (human) (UniProt O14578)
# CLK1 (human) = CLK1 (human) (UniProt P49759)
# CSNK1G1 (human) = CSNK1G1 (human) (UniProt Q9HCP0)
# DYRK1A (human) = DYRK1A (human) (UniProt Q13627)
# EPHA2 (human) = EPHA2 (human) (UniProt P29317)
# HIPK1 (human) = HIPK1 (human) (UniProt Q86Z02)
# JAK1 JH1 JH2 (human) = JAK1 JH1 JH2 (human) (UniProt P23458)
# LTK (human) = LTK (human) (UniProt P29376)
# LYN (human) = LYN (human) (UniProt P07948)
# MAPK10 (human) = MAPK10 (human) (UniProt P53779)
# MAPKAPK2 (human) = MAPKAPK2 (human) (UniProt P49137)
# MARK1 (human) = MARK1 (human) (UniProt Q9P0L2)
# MARK3 (human) = MARK3 (human) (UniProt P27448)
# MARK4 (human) = MARK4 (human) (UniProt Q96L34)
# MKNK2 (human) = MKNK2 (human) (UniProt Q9HBH9)
# NEK6 (human) = NEK6 (human) (UniProt Q9HC98)
# NTRK2 (human) = NTRK2 (human) (UniProt Q16620)
# PHKG1 (human) = PHKG1 (human) (UniProt Q16816)
# PRKCH (human) = PRKCH (human) (UniProt P24723)
# PRKD3 (human) = PRKD3 (human) (UniProt O94806)
# ROCK2 (human) = ROCK2 (human) (UniProt O75116)
# ROS1 (human) = ROS1 (human) (UniProt P08922)
# RPS6KA4 KD1 KD2 (human) = RPS6KA4 KD1 KD2 (human) (UniProt O75676)
# RPS6KA6 KD1 KD2 (human) = RPS6KA6 KD1 KD2 (human) (UniProt Q9UK32)
# SGK1 (human) = SGK1 (human) (UniProt O00141)
# STK3 (human) = STK3 (human) (UniProt Q13188)
# TSSK1B (human) = TSSK1B (human) (UniProt Q9BXA7)
# TXK (human) = TXK (human) (UniProt P42681)
# TYRO3 (human) = TYRO3 (human) (UniProt Q06418)
# YES1 (human) = YES1 (human) (UniProt P07947)
# FRK (human) = FRK (human) (UniProt P42685); conditions: compound 0.2 µM
# Chain of JAK1 JH1 JH2 (human) (P23458 whole entry, looked up): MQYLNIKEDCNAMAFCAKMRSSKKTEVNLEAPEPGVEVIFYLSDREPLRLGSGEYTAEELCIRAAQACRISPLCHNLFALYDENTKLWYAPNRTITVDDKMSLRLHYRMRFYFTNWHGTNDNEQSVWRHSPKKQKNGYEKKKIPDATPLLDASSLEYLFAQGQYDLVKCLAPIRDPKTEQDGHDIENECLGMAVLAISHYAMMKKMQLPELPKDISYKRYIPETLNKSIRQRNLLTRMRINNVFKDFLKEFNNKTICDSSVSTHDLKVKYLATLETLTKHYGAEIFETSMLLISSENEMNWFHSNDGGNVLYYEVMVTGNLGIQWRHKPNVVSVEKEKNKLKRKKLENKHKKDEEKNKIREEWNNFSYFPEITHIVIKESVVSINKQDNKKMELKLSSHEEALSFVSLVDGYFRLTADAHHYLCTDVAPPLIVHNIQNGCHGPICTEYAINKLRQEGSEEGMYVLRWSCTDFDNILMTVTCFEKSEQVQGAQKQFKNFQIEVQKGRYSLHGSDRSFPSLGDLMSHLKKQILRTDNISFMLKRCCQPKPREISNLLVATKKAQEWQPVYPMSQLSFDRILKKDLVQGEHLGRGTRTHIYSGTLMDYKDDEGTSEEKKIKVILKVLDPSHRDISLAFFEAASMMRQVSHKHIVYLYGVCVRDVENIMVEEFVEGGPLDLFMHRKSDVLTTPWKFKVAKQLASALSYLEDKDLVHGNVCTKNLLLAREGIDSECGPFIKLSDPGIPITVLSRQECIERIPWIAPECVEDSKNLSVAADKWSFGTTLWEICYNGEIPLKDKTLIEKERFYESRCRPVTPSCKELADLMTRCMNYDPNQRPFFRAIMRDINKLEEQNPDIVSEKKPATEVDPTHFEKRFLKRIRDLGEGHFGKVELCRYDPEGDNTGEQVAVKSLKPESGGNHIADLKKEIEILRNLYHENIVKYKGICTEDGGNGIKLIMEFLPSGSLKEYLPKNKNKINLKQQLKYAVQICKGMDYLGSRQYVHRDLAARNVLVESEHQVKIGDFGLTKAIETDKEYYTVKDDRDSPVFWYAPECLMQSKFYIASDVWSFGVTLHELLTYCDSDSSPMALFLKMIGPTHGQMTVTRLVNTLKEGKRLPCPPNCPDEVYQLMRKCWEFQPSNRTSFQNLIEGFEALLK
# Chain of TYRO3 (human) (Q06418 whole entry, looked up): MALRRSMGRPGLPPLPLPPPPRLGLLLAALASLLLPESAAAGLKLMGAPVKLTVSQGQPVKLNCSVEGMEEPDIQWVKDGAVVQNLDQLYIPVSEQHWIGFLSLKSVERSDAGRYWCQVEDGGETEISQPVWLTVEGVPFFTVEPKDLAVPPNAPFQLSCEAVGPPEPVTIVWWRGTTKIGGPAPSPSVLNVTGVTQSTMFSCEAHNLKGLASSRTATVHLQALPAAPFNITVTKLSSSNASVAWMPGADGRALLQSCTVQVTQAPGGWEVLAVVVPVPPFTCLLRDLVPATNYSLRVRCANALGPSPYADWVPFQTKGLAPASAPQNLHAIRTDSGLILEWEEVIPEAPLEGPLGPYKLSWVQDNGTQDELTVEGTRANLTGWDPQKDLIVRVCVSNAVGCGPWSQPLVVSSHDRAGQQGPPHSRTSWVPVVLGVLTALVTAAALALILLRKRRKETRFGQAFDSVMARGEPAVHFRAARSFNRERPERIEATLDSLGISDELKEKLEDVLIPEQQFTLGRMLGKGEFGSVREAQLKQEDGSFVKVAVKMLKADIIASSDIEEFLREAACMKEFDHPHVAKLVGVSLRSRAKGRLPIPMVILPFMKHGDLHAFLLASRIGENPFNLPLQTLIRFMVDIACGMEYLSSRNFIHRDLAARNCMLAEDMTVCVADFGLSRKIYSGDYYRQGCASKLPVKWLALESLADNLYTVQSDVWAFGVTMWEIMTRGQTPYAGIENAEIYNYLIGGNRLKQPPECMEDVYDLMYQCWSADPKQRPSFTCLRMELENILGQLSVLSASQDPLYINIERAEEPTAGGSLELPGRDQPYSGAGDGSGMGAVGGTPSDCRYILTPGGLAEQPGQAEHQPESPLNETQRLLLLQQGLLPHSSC
# Chain of TXK (human) (P42681 whole entry, looked up): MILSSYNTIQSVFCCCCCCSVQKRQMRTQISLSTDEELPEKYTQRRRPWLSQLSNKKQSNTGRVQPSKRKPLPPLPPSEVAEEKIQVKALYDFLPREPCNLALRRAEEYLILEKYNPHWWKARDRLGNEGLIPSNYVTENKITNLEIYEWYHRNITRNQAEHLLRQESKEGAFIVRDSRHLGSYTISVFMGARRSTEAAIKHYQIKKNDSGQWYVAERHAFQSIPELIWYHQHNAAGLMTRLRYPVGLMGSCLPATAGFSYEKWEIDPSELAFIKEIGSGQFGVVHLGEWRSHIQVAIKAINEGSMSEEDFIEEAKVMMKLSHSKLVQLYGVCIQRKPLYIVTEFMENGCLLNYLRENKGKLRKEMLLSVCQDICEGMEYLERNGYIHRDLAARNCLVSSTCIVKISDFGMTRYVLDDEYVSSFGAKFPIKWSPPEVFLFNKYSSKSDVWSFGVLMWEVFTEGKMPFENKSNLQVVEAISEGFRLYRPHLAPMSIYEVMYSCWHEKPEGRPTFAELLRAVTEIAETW
# Chain of STK3 (human) (Q13188 whole entry, looked up): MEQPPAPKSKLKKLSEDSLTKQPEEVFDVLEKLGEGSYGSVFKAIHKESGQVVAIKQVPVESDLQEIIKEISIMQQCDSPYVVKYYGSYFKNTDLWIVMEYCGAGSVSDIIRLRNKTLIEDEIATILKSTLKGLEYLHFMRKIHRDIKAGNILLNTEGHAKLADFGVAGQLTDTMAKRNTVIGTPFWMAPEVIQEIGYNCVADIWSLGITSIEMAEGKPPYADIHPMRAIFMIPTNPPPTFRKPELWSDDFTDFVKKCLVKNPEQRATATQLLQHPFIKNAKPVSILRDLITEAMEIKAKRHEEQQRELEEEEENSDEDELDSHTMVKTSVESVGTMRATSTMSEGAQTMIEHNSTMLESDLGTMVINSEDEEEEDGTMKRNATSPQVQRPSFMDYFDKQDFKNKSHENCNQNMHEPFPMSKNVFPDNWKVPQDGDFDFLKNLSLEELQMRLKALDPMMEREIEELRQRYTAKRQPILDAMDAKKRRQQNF
# Chain of MARK4 (human) (Q96L34 whole entry, looked up): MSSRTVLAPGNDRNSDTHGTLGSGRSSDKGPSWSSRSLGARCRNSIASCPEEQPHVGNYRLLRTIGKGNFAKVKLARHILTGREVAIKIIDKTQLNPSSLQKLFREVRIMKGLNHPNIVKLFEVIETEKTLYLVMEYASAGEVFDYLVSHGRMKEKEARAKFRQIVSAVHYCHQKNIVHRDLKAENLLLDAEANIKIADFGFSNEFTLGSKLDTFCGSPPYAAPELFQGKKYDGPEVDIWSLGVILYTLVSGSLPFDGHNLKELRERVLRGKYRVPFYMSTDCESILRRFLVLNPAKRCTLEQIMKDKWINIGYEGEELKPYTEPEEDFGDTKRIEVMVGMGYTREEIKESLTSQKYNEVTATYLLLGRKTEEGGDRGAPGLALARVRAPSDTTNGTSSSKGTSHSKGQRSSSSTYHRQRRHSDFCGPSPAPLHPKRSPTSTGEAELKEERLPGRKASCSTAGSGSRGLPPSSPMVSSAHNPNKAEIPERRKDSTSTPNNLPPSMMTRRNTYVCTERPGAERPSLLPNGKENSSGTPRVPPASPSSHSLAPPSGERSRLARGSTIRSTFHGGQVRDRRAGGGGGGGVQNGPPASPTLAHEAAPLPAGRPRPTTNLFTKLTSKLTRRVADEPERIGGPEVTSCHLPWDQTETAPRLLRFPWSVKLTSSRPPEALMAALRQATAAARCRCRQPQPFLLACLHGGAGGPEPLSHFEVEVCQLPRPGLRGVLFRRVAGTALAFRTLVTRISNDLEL
# Chain of CAMK2A (human) (Q9UQM7 whole entry, looked up): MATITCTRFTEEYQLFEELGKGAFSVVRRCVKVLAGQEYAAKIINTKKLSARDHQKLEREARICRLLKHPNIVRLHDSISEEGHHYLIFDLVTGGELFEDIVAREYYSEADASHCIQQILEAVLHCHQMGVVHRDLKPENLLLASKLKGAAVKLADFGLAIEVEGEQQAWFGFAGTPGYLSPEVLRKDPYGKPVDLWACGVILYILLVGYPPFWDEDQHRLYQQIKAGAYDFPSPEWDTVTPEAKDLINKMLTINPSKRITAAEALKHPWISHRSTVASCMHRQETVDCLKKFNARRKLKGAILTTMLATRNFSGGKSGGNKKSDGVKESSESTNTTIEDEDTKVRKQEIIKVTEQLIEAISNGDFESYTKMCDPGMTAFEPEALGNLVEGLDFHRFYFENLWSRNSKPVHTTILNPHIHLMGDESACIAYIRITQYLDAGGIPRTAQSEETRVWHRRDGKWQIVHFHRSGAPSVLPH
# Chain of MARK3 (human) (P27448 whole entry, looked up): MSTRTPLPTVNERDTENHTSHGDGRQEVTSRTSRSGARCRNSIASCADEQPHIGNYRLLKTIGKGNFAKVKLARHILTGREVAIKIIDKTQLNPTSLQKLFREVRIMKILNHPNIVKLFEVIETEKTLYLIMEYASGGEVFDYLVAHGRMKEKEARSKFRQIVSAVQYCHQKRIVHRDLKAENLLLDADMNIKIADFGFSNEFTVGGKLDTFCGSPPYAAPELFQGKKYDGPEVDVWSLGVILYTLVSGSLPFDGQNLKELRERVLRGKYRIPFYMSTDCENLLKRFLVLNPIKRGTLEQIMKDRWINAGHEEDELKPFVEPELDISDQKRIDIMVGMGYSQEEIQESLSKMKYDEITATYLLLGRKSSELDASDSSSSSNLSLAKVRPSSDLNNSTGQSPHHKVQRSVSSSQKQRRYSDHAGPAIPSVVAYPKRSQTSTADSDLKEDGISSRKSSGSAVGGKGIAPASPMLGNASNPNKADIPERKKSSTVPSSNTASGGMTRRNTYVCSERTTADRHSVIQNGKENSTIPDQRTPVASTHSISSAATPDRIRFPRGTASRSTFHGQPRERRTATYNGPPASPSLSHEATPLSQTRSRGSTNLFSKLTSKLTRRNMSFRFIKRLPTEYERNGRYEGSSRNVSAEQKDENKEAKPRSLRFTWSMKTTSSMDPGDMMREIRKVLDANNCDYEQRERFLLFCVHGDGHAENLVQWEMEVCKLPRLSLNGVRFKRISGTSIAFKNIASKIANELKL
smiles,measurement,setting,value
CNC(=O)c1cc(Oc2ccc(NC(=O)Nc3ccc(Cl)c(C(F)(F)F)c3)cc2)ccn1,inhibition,AKT2 (human); compound 0.02 µM,-9%
same,inhibition,AKT2 (human); compound 0.2 µM,-8.2%
same,inhibition,CAMK2A (human); compound 0.02 µM,-2.1%
same,inhibition,CAMK2A (human); compound 0.2 µM,5.8%
same,inhibition,CIT (human); compound 0.02 µM,-4.9%
same,inhibition,CIT (human); compound 0.2 µM,-2.3%
same,inhibition,CLK1 (human); compound 0.02 µM,-7%
same,inhibition,CLK1 (human); compound 0.2 µM,8.1%
same,inhibition,CSNK1G1 (human); compound 0.02 µM,-3.7%
same,inhibition,CSNK1G1 (human); compound 0.2 µM,-3%
same,inhibition,DYRK1A (human); compound 0.02 µM,-7.5%
same,inhibition,DYRK1A (human); compound 0.2 µM,3.6%
same,inhibition,EPHA2 (human); compound 0.02 µM,-2.7%
same,inhibition,EPHA2 (human); compound 0.2 µM,9.8%
same,inhibition,HIPK1 (human); compound 0.02 µM,-1.4%
same,inhibition,HIPK1 (human); compound 0.2 µM,3.9%
same,inhibition,JAK1 JH1 JH2 (human); compound 0.02 µM,-1.7%
same,inhibition,JAK1 JH1 JH2 (human); compound 0.2 µM,3.1%
same,inhibition,LTK (human); compound 0.02 µM,-2.2%
same,inhibition,LTK (human); compound 0.2 µM,7.4%
same,inhibition,LYN (human); compound 0.02 µM,-5% and -0.3%
same,inhibition,LYN (human); compound 0.2 µM,35.2% and 36.9%
same,inhibition,MAPK10 (human); compound 0.02 µM,-6.5%
same,inhibition,MAPK10 (human); compound 0.2 µM,-4.6%
same,inhibition,MAPKAPK2 (human); compound 0.02 µM,-7.2%
same,inhibition,MAPKAPK2 (human); compound 0.2 µM,-2%
same,inhibition,MARK1 (human); compound 0.02 µM,-0.8%
same,inhibition,MARK1 (human); compound 0.2 µM,0.9%
same,inhibition,MARK3 (human); compound 0.02 µM,-5.5%
same,inhibition,MARK3 (human); compound 0.2 µM,5.7%
same,inhibition,MARK4 (human); compound 0.02 µM,1.4%
same,inhibition,MARK4 (human); compound 0.2 µM,1.6%
same,inhibition,MKNK2 (human); compound 0.02 µM,4.4%
same,inhibition,MKNK2 (human); compound 0.2 µM,48.3%
same,inhibition,NEK6 (human); compound 0.02 µM,-5%
same,inhibition,NEK6 (human); compound 0.2 µM,-6.1%
same,inhibition,NTRK2 (human); compound 0.02 µM,3.2%
same,inhibition,NTRK2 (human); compound 0.2 µM,37.4%
same,inhibition,PHKG1 (human); compound 0.02 µM,-3.6%
same,inhibition,PHKG1 (human); compound 0.2 µM,-2%
same,inhibition,PRKCH (human); compound 0.02 µM,2.1%
same,inhibition,PRKD3 (human); compound 0.02 µM,-0.7%
same,inhibition,PRKD3 (human); compound 0.2 µM,-5.1%
same,inhibition,ROCK2 (human); compound 0.02 µM,-2%
same,inhibition,ROCK2 (human); compound 0.2 µM,2.8%
same,inhibition,ROS1 (human); compound 0.2 µM,1.3%
same,inhibition,RPS6KA4 KD1 KD2 (human); compound 0.02 µM,-1.1%
same,inhibition,RPS6KA4 KD1 KD2 (human); compound 0.2 µM,2.6%
same,inhibition,RPS6KA6 KD1 KD2 (human); compound 0.02 µM,-2%
same,inhibition,RPS6KA6 KD1 KD2 (human); compound 0.2 µM,-6.2%
same,inhibition,SGK1 (human); compound 0.02 µM,-0.6%
same,inhibition,SGK1 (human); compound 0.2 µM,8.5%
same,inhibition,STK3 (human); compound 0.02 µM,-3.3%
same,inhibition,STK3 (human); compound 0.2 µM,-1.9%
same,inhibition,TSSK1B (human); compound 0.02 µM,-3.7%
same,inhibition,TSSK1B (human); compound 0.2 µM,-2.9%
same,inhibition,TXK (human); compound 0.02 µM,-6.1%
same,inhibition,TXK (human); compound 0.2 µM,5.8%
same,inhibition,TYRO3 (human); compound 0.02 µM,-9.4%
same,inhibition,TYRO3 (human); compound 0.2 µM,3.7%
same,inhibition,YES1 (human); compound 0.02 µM,-1.9%
same,inhibition,YES1 (human); compound 0.2 µM,17.7%
CCN(CC)CCNC(=O)c1c(C)[nH]c(/C=C2\C(=O)Nc3ccc(F)cc32)c1C,inhibition,CAMK2A (human); compound 0.2 µM,24.5%
same,inhibition,CAMK2A (human); compound 4.0 µM,89%
same,inhibition,CIT (human); compound 0.2 µM,2.2%
same,inhibition,CIT (human); compound 4.0 µM,29.1%
same,inhibition,DYRK1A (human); compound 0.2 µM,23%
same,inhibition,DYRK1A (human); compound 4.0 µM,82.1%
same,inhibition,EPHA2 (human); compound 0.2 µM,-1.9%
same,inhibition,EPHA2 (human); compound 4.0 µM,24.9%
same,inhibition,FRK (human),29.7%
same,inhibition,HIPK1 (human); compound 0.2 µM,51.3%
same,inhibition,HIPK1 (human); compound 4.0 µM,94.4%
same,inhibition,JAK1 JH1 JH2 (human); compound 0.2 µM,10.9%
same,inhibition,JAK1 JH1 JH2 (human); compound 4.0 µM,70.4%
same,inhibition,LTK (human); compound 0.2 µM,69%
same,inhibition,LYN (human); compound 0.2 µM,67.3% and 70.3%
same,inhibition,LYN (human); compound 4.0 µM,98.3% and 99.7%
same,inhibition,MAPK10 (human); compound 0.2 µM,-2.3%
same,inhibition,MAPKAPK2 (human); compound 0.2 µM,4%
same,inhibition,MAPKAPK2 (human); compound 4.0 µM,5.5%
same,inhibition,MARK1 (human); compound 0.2 µM,68.8%
same,inhibition,MARK1 (human); compound 4.0 µM,96.8%
same,inhibition,MARK3 (human); compound 0.2 µM,77.4%
same,inhibition,MARK3 (human); compound 4.0 µM,99%
same,inhibition,MARK4 (human); compound 0.2 µM,76.3%
same,inhibition,MARK4 (human); compound 4.0 µM,100%
same,inhibition,MKNK2 (human); compound 0.2 µM,3.2%
same,inhibition,MKNK2 (human); compound 4.0 µM,28%
same,inhibition,NEK6 (human); compound 0.2 µM,-1.5%
same,inhibition,NEK6 (human); compound 4.0 µM,-6.8%
same,inhibition,NTRK2 (human); compound 0.2 µM,85.7%
same,inhibition,NTRK2 (human); compound 4.0 µM,101%
same,inhibition,PHKG1 (human); compound 0.2 µM,91.8%
same,inhibition,PHKG1 (human); compound 4.0 µM,96.9%
same,inhibition,PRKCH (human); compound 0.2 µM,2.3%
same,inhibition,PRKCH (human); compound 4.0 µM,20.7%
same,inhibition,PRKD3 (human); compound 0.2 µM,63.7%
same,inhibition,PRKD3 (human); compound 4.0 µM,97.5%
same,inhibition,ROCK2 (human); compound 0.2 µM,20%
same,inhibition,ROCK2 (human); compound 4.0 µM,76.7%
same,inhibition,ROS1 (human); compound 0.2 µM,18.4%
same,inhibition,ROS1 (human); compound 4.0 µM,81.4%
same,inhibition,RPS6KA4 KD1 KD2 (human); compound 0.2 µM,15.5%
same,inhibition,RPS6KA4 KD1 KD2 (human); compound 4.0 µM,73.7%
same,inhibition,RPS6KA6 KD1 KD2 (human); compound 0.2 µM,80.7%
same,inhibition,RPS6KA6 KD1 KD2 (human); compound 4.0 µM,97.8%
same,inhibition,SGK1 (human); compound 0.2 µM,28.6%
same,inhibition,SGK1 (human); compound 4.0 µM,87.8%
same,inhibition,STK3 (human); compound 0.2 µM,51.4%
same,inhibition,STK3 (human); compound 4.0 µM,95.7%
same,inhibition,TSSK1B (human); compound 0.2 µM,63.2%
same,inhibition,TSSK1B (human); compound 4.0 µM,95.5%
same,inhibition,TXK (human); compound 0.2 µM,6.1%
same,inhibition,TXK (human); compound 4.0 µM,43%
same,inhibition,TYRO3 (human); compound 0.2 µM,82.2%
same,inhibition,TYRO3 (human); compound 4.0 µM,100%
same,inhibition,YES1 (human); compound 0.2 µM,96.9%
same,inhibition,YES1 (human); compound 4.0 µM,101%
